Laboratory results published in US12325697B2 (Nimbus Clio, Inc., priority 2021, dated 2025).
Like-named read-outs stand apart in the source and are kept apart here.

Key:
[1] = target: Recombinant human Cbl-b (aa 36-427) (Homo sapiens (Human), UniProt Q13191); assay: Cbl-b Biochemical Assay (TR-FRET); settings: read-out: TR-FRET hCbl-b IC50
Summary of the method: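 IC50 from 4-parameter fit of % inhibition (DMSO max, reference-inhibitor min), duplicate ten-point series. Compound preincubated with 6 nM Cbl-b, then Src-Zap70 (1-2.5 nM)/0.5 mM ATP reaction 60 min RT; EDTA quench with labelled UBE2D2-Ub and streptavidin-terbium, 60 min, HTRF at 520 nm.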

[2] = system: Jurkat (clone E6-1) cells, NFAT luciferase reporter; assay: Jurkat Reporter Assay (NFAT Luciferase); type: cell-based; settings: Homo sapiens
[3] = system: Phospho-Zap70 (Y-319) in Jurkat wild-type (clone E6-1) cells; assay: Jurkat pZAP70 HTRF Assay; type: cell-based; settings: Homo sapiens
[4] = anti-CD3 stimulation, 6 hr, read-out: Jurkat NFAT EC50
[5] = anti-CD3 5 μg/ml, 3 hr, read-out: ZAP70 Jurkat EC50

Recombinant human Cbl-b (aa 36-427), sequence (Q13191 36-427): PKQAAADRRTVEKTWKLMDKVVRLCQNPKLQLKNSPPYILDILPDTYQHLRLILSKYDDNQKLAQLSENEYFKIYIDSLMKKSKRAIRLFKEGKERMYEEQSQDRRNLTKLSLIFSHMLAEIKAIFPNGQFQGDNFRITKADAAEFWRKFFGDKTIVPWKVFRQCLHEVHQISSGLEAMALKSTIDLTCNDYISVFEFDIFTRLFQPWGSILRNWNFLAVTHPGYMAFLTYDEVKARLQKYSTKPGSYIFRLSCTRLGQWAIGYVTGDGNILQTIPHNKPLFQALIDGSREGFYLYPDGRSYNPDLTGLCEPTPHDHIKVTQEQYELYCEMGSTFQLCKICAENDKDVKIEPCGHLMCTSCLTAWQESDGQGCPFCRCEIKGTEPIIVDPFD

## CCNc1cc(-c2ccc(F)cc2-c2nncn2C)cc(N2Cc3c(cc(COCC4(F)CCC4)cc3C(F)(F)F)C2=O)n1 [AGB-1, 2-[6-(Ethylamino)-4-[4-fluoro-2-(4-methyl-1,2,4-triazol-3-yl)phenyl]pyridin-2-yl]-6-{1[(1-fluorocyclobutyl)methoxy]methyl}-4-(trifluoromethyl)-3H-isoindol-1-one]
[1]
  IC50: ≤ 200 nM
[2]; [4]
  EC50: < 0.2 µM
[3]; [5]
  EC50: 1 to 10 µM

## Cn1cnnc1-c1cc(Cl)ccc1-c1cc(C2CC2)nc(N2Cc3ccc(CNCC4(O)CCC4)cc3C2=O)c1 [AGW-6, 2-{4-[4-Chloro-2-(4-methyl-1,2,4-triazol-3-yl)phenyl]-6-cyclopropylpyridin-2-yl}-6-({[(1-hydroxycyclobutyl)methyl]amino}methyl)-3H-isoindol-1-one]
[1]
  IC50: ≤ 200 nM
[2]; [4]
  EC50: < 0.2 µM
[3]; [5]
  EC50: < 0.2 µM

## CCNc1cc(-c2c(-c3nncn3C)cnn2C)cc(N2Cc3c(cc(COCC4(N)CCC4)cc3C(F)(F)F)C2=O)n1 [AGF-3, 6-{[(1-Aminocyclobutyl)methoxy]methyl}-2-[6-(ethylamino)-4-[2-methyl-4-(4-methyl-1,2,4-triazol-3-yl)pyrazol-3-yl]pyridin-2-yl]-4-(trifluoromethyl)-3H-isoindol-1-one]
[1]
  IC50: ≤ 200 nM
[2]; [4]
  EC50: 0.2 to 1 µM
[3]; [5]
  EC50: 1 to 10 µM

## Cn1cnnc1-c1cc(C#N)ccc1-c1cc(C2CC2)nc(N2Cc3c(cc(CNCCOC(F)(F)F)cc3C(F)(F)F)C2=O)c1 [AGN-3, 4-{2-Cyclopropyl-6-[1-oxo-6-({[2-(trifluoromethoxy)ethyl]amino}methyl)-4-(trifluoromethyl)-3H-isoindol-2-yl]pyridin-4-yl}-3-(4-methyl-1,2,4-triazol-3-yl)benzonitrile]
[1]
  IC50: ≤ 200 nM
[2]; [4]
  EC50: < 0.2 µM
[3]; [5]
  EC50: 0.2 to 1 µM

## CCOc1cc(-c2ccc(F)cc2-c2nncn2C)cc(N2Cc3ccc(CNCC4(O)CCC4)cc3C2=O)n1 [AGR-1, 2-{6-Ethoxy-4-[4-fluoro-2-(4-methyl-1,2,4-triazol-3-yl)phenyl]pyridin-2-yl}-6-({[(1-hydroxycyclobutyl)methyl]amino}methyl)-3H-isoindol-1-one]
[1]
  IC50: ≤ 200 nM
[2]; [4]
  EC50: < 0.2 µM
[3]; [5]
  EC50: < 0.2 µM

## Cn1cnnc1-c1ccccc1-c1cc(C2CC2)nc(N2Cc3ccc(CNCC4(O)CCC4)cc3C2=O)c1 [AEH-1, 2-{6-Cyclopropyl-4-[2-(4-methyl-1,2,4-triazol-3-yl)phenyl]pyridin-2-yl}-6-({[(1-hydroxycyclobutyl)methyl]amino}methyl)-3H-isoindol-1-one]
[1]
  IC50: ≤ 200 nM
[2]; [4]
  EC50: < 0.2 µM
[3]; [5]
  EC50: < 0.2 µM

## Cn1cnnc1-c1ccccc1-c1cc(C2CC2)nc(N2Cc3c(cc(CNCC4(O)CCC4)cc3C(F)(F)F)C2=O)c1 [ADZ-2, 2-{6-Cyclopropyl-4-[2-(4-methyl-1,2,4-triazol-3-yl)phenyl]pyridin-2-yl}-6-({[(1-hydroxycyclobutyl)methyl]amino}methyl)-4-(trifluoromethyl)-3H-isoindol-1-one]
[1]
  IC50: ≤ 200 nM
[2]; [4]
  EC50: < 0.2 µM
[3]; [5]
  EC50: < 0.2 µM

## CCNc1cc(-c2ccc(F)cc2-c2nncn2C)cc(N2Cc3c(cc(COCC4(O)CCC4)cc3C(F)(F)F)C2=O)n1 [AFF-2, 2-[6-(Ethylamino)-4-[4-fluoro-2-(4-methyl-1,2,4-triazol-3-yl)phenyl]pyridin-2-yl]-6-{1[(1-hydroxycyclobutyl)methoxy]methyl}-4-(trifluoromethyl)-3H-isoindol-1-one]
[1]
  IC50: ≤ 200 nM
[2]; [4]
  EC50: < 0.2 µM
[3]; [5]
  EC50: < 0.2 µM

## Cn1cnnc1-c1cc(F)ccc1-c1cc(C2CC2)nc(N2Cc3ccc(CNCC4(O)CCCC4)cc3C2=O)c1 [AGP-1, 2-{6-Cyclopropyl-4-[4-fluoro-2-(4-methyl-1,2,4-triazol-3-yl)phenyl]pyridin-2-yl}-6-({[(1-hydroxycyclopentyl)methyl]amino}methyl)-3H-isoindol-1-one]
[1]
  IC50: ≤ 200 nM
[2]; [4]
  EC50: < 0.2 µM
[3]; [5]
  EC50: 0.2 to 1 µM

## CCNc1cc(-c2c(-c3nncn3C)cnn2C)cc(N2Cc3c(cc(CN[C@@H]4CCC[C@@H]4O)cc3C(F)(F)F)C2=O)n1 [ADF-2, 2-[6-(Ethylamino)-4-[2-methyl-4-(4-methyl-1,2,4-triazol-3-yl)pyrazol-3-yl]pyridin-2-yl]-6-({[(1R,2S)-2-hydroxycyclopentyl]amino}methyl)-4-(trifluoromethyl)-3H-isoindol-1-one]
[1]
  IC50: ≤ 200 nM
[2]; [4]
  EC50: < 0.2 µM
[3]; [5]
  EC50: < 0.2 µM

## CCNc1cc(-c2ccc(C#N)cc2-c2nncn2C)cc(N2Cc3c(cc(OC)cc3C(F)(F)F)C2=O)n1 [AEU-8, 4-[2-(Ethylamino)-6-[6-methoxy-1-oxo-4-(trifluoromethyl)-3H-isoindol-2-yl]pyridin-4-yl]-3-(4-methyl-1,2,4-triazol-3-yl)benzonitrile]
[1]
  IC50: ≤ 200 nM
[2]; [4]
  EC50: < 0.2 µM
[3]; [5]
  EC50: 0.2 to 1 µM

## Cn1cnnc1-c1cc(Cl)ccc1-c1cccc(N2Cc3ccc(CNCC4(O)CCCC4)cc3C2=O)c1 [AGU-10, 2-[4′-Chloro-2′-(4-methyl-1,2,4-triazol-3-yl)-[1,1′-biphenyl]-3-yl]-6-({[(1-hydroxycyclopentyl)methyl]amino}methyl)-3H-isoindol-1-one]
[1]
  IC50: ≤ 200 nM
[2]; [4]
  EC50: < 0.2 µM
[3]; [5]
  EC50: < 0.2 µM

## Cn1cnnc1-c1cc(C#N)ccc1-c1cc(C2CC2)nc(N2Cc3ccc(CN[C@@H]4CCC[C@@H]4O)cc3C2=O)c1 [AHC-1, 4-{2-cyclopropyl-6-[6-({[(1R,2S)-2-hydroxycyclopentyl]amino}methyl)-1-oxo-3H-isoindol-2-yl]pyridin-4-yl}-3-(4-methyl-1,2,4-triazol-3-yl)benzonitrile]
[1]
  IC50: ≤ 200 nM
[2]; [4]
  EC50: < 0.2 µM
[3]; [5]
  EC50: < 0.2 µM

## Cn1cnnc1-c1cnn(C)c1-c1cc(C2CC2)nc(N2Cc3c(cc(COCC4(O)CCC4)cc3C(F)(F)F)C2=O)c1 [AFV-3, 2-{6-Cyclopropyl-4-[2-methyl-4-(4-methyl-1,2,4-triazol-3-yl)pyrazol-3-yl]pyridin-2-yl}-6-{[(1-hydroxycyclobutyl)methoxy]methyl}-4-(trifluoromethyl)-3H-isoindol-1-one]
[1]
  IC50: ≤ 200 nM
[2]; [4]
  EC50: < 0.2 µM
[3]; [5]
  EC50: 0.2 to 1 µM

## Cn1cnnc1-c1cc(F)ccc1-c1cc(C2CC2)nc(N2Cc3ccc(COCC4(N)CCC4)cc3C2=O)c1 [AGI-3, 6-{1[(1-Aminocyclobutyl)methoxy]methyl}-2-{6-cyclopropyl-4-[4-fluoro-2-(4-methyl-1,2,4-triazol-3-yl)phenyl]pyridin-2-yl}-3H-isoindol-1-one]
[1]
  IC50: ≤ 200 nM
[2]; [4]
  EC50: < 0.2 µM
[3]; [5]
  EC50: < 0.2 µM

## COCCNCc1cc2c(c(C(F)(F)F)c1)CN(c1cc(-c3ccc(C#N)cc3-c3nncn3C)cc(C3CC3)n1)C2=O [AEN-1, 4-[2-Cyclopropyl-6-(6-{[(2-methoxyethyl)amino]methyl}-1-oxo-4-(trifluoromethyl)-3H-isoindol-2-yl)pyridin-4-yl]-3-(4-methyl-1,2,4-triazol-3-yl)benzonitrile]
[1]
  IC50: ≤ 200 nM
[2]; [4]
  EC50: < 0.2 µM
[3]; [5]
  EC50: < 0.2 µM

## CCNc1cc(-c2ccc(C#N)cc2-c2nncn2C)cc(N2Cc3c(cc(CN4CCC[C@@H](C)C4)cc3C(F)(F)F)C2=O)n1 [ADU-2, 4-[2-(Ethylamino)-6-(6-{[(3R)-3-methylpiperidin-1-yl]methyl}-1-oxo-4-(trifluoromethyl)-3H-isoindol-2-yl)pyridin-4-yl]-3-(4-methyl-1,2,4-triazol-3-yl) benzonitrile]
[1]
  IC50: ≤ 200 nM
[2]; 6 h, read-out: Jurkat NFAT EC50 (μM)
  EC50: < 0.2 µM
[3]; 3 h, read-out: ZAP70 Jurkat EC50 (μM)
  EC50: 0.2 to 1 µM
